# From ChEMBL document CHEMBL1201862, “PubChem BioAssay data set” (2004)
#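 Each compound was tested at five concentrations against cells in 96-well plates for 48 hours. The concentration for 50% growth inhibition is given as GI50.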 The source made the active and inactive calls. No stated cut-off is given here; in the data, active = GI50 up to about 1.1 µM and inactive = higher.
# Experiments:
# Assay in all cases: NCI tumour cell line growth inhibition, 48 h
# 786-0 = system: 786-0
# A498 = system: A498
# A549 = system: A549
# ACHN = system: ACHN
# CAKI-1 = system: CAKI-1
# CCRF-CEM = system: CCRF-CEM
# COLO 205 = system: COLO 205
# DLD-1 = system: DLD-1
# DMS-114 = system: DMS-114
# DMS-273 = system: DMS-273
# DU-145 = system: DU-145
# EKVX = system: EKVX
# HCC 2998 = system: HCC 2998
# HCT-116 = system: HCT-116
# HCT-15 = system: HCT-15
# HL-60 = system: HL-60
# HOP-18 = system: HOP-18
# HOP-62 = system: HOP-62
# HOP-92 = system: HOP-92
# HT-29 = system: HT-29
# IGROV-1 = system: IGROV-1
# K562 = system: K562
# KM-20L2 = system: KM-20L2
# KM12 = system: KM12
# LOX IMVI = system: LOX IMVI
# LXFL 529 = system: LXFL 529
# M14 = system: M14
# M19-MEL = system: M19-MEL
# Malme-3M = system: Malme-3M
# NCI-H226 = system: NCI-H226
# NCI-H23 = system: NCI-H23
# NCI-H460 = system: NCI-H460
# NCI-H522 = system: NCI-H522
# OVCAR-3 = system: OVCAR-3
# OVCAR-4 = system: OVCAR-4
# OVCAR-5 = system: OVCAR-5
# OVCAR-8 = system: OVCAR-8
# PC-3 = system: PC-3
# RPMI-8226 = system: RPMI-8226
# RXF 393 = system: RXF 393
# RXF 631 = system: RXF 631
# SF-268 = system: SF-268
# SF-295 = system: SF-295
# SF-539 = system: SF-539
# SK-MEL-28 = system: SK-MEL-28
# SK-MEL-2 = system: SK-MEL-2
# SK-MEL-5 = system: SK-MEL-5
# SK-OV-3 = system: SK-OV-3
# SN12C = system: SN12C
# SNB-19 = system: SNB-19
# SNB-75 = system: SNB-75
# SNB-78 = system: SNB-78
# SW-620 = system: SW-620
# TK-10 = system: TK-10
# U-251 = system: U-251
# UACC-257 = system: UACC-257
# UACC-62 = system: UACC-62
# UO-31 = system: UO-31
# XF498 = system: XF498
# MOLT-4 = system: MOLT-4
# SR = system: SR
compound,measurement,setting,value
Nc1nc2c(ncn2C2OC(CO)C(O)C2O)c(=O)o1 (stereo not drawn),GI50,786-0,> 100 µM (inactive)
same,GI50,A498,> 100 µM (inactive)
same,GI50,A549,> 100 µM (inactive)
same,GI50,ACHN,> 83.8 µM (inactive)
same,GI50,CAKI-1,> 100 µM (inactive)
same,GI50,CCRF-CEM,> 23.2 µM (inactive)
same,GI50,COLO 205,> 42 µM (inactive)
same,GI50,DLD-1,> 89.1 µM (inactive)
same,GI50,DMS-114,67.3 µM (inactive)
same,GI50,DMS-273,22.5 µM (inactive)
same,GI50,DU-145,> 100 µM (inactive)
same,GI50,EKVX,> 100 µM (inactive)
same,GI50,HCC 2998,5.82 µM (inactive)
same,GI50,HCT-116,> 82.2 µM (inactive)
same,GI50,HCT-15,42.9 µM
same,GI50,HL-60,> 45.1 µM (inactive)
same,GI50,HOP-18,> 100 µM (inactive)
same,GI50,HOP-62,> 100 µM (inactive)
same,GI50,HOP-92,> 100 µM (inactive)
same,GI50,HT-29,26.4 µM (inactive)
same,GI50,IGROV-1,> 100 µM (inactive)
same,GI50,K562,> 21.9 µM (inactive)
same,GI50,KM-20L2,> 55 µM (inactive)
same,GI50,KM12,> 100 µM (inactive)
same,GI50,LOX IMVI,> 58.2 µM (inactive)
same,GI50,LXFL 529,> 100 µM (inactive)
same,GI50,M14,> 100 µM (inactive)
same,GI50,M19-MEL,> 100 µM (inactive)
same,GI50,Malme-3M,> 100 µM (inactive)
same,GI50,NCI-H226,> 100 µM (inactive)
same,GI50,NCI-H23,> 84.1 µM (inactive)
same,GI50,NCI-H460,> 100 µM (inactive)
same,GI50,NCI-H522,18.6 µM (inactive)
same,GI50,OVCAR-3,> 100 µM (inactive)
same,GI50,OVCAR-4,> 100 µM (inactive)
same,GI50,OVCAR-5,> 100 µM (inactive)
same,GI50,OVCAR-8,> 100 µM (inactive)
same,GI50,PC-3,> 100 µM (inactive)
same,GI50,RPMI-8226,> 52.8 µM (inactive)
same,GI50,RXF 393,> 100 µM (inactive)
same,GI50,RXF 631,> 100 µM (inactive)
same,GI50,SF-268,> 100 µM (inactive)
same,GI50,SF-295,> 100 µM (inactive)
same,GI50,SF-539,> 100 µM (inactive)
same,GI50,SK-MEL-28,> 100 µM (inactive)
same,GI50,SK-MEL-2,> 100 µM (inactive)
same,GI50,SK-MEL-5,> 100 µM (inactive)
same,GI50,SK-OV-3,> 100 µM (inactive)
same,GI50,SN12C,> 100 µM (inactive)
same,GI50,SNB-19,> 100 µM (inactive)
same,GI50,SNB-75,> 100 µM (inactive)
same,GI50,SNB-78,> 100 µM (inactive)
same,GI50,SW-620,> 33.4 µM (inactive)
same,GI50,TK-10,> 100 µM (inactive)
same,GI50,U-251,> 100 µM (inactive)
same,GI50,UACC-257,> 100 µM (inactive)
same,GI50,UACC-62,> 100 µM (inactive)
same,GI50,UO-31,> 87.1 µM (inactive)
same,GI50,XF498,> 100 µM (inactive)
CCCCCCCCCCCCCC(=O)OCC1OC(n2cc(F)c(=O)[nH]c2=O)C(NC(=O)OCc2ccccc2)C(OC(=O)CCCCCCCCCCCCC)C1O (stereo not drawn),GI50,786-0,> 100 µM (inactive)
same,GI50,A498,> 100 µM (inactive)
same,GI50,A549,> 100 µM (inactive)
same,GI50,ACHN,> 100 µM (inactive)
same,GI50,CAKI-1,> 100 µM (inactive)
same,GI50,CCRF-CEM,> 100 µM (inactive)
same,GI50,COLO 205,> 100 µM (inactive)
same,GI50,DLD-1,> 100 µM (inactive)
same,GI50,DMS-114,> 100 µM (inactive)
same,GI50,DMS-273,> 100 µM (inactive)
same,GI50,EKVX,> 100 µM (inactive)
same,GI50,HCC 2998,> 100 µM (inactive)
same,GI50,HCT-116,> 100 µM (inactive)
same,GI50,HCT-15,> 100 µM
same,GI50,HL-60,> 100 µM (inactive)
same,GI50,HOP-18,> 100 µM (inactive)
same,GI50,HOP-62,> 100 µM (inactive)
same,GI50,HOP-92,> 100 µM (inactive)
same,GI50,HT-29,> 100 µM (inactive)
same,GI50,IGROV-1,> 100 µM (inactive)
same,GI50,K562,> 100 µM (inactive)
same,GI50,KM-20L2,> 100 µM (inactive)
same,GI50,KM12,> 100 µM (inactive)
same,GI50,LOX IMVI,> 100 µM (inactive)
same,GI50,LXFL 529,> 100 µM (inactive)
same,GI50,M14,> 100 µM (inactive)
same,GI50,M19-MEL,> 100 µM (inactive)
same,GI50,MOLT-4,> 100 µM (inactive)
same,GI50,Malme-3M,> 100 µM (inactive)
same,GI50,NCI-H226,> 100 µM (inactive)
same,GI50,NCI-H23,> 100 µM (inactive)
same,GI50,NCI-H460,> 100 µM (inactive)
same,GI50,NCI-H522,> 100 µM (inactive)
same,GI50,OVCAR-3,> 100 µM (inactive)
same,GI50,OVCAR-4,> 100 µM (inactive)
same,GI50,OVCAR-5,25.6 µM (inactive)
same,GI50,OVCAR-8,> 100 µM (inactive)
same,GI50,RPMI-8226,> 100 µM (inactive)
same,GI50,RXF 393,> 100 µM (inactive)
same,GI50,RXF 631,> 100 µM (inactive)
same,GI50,SF-268,> 100 µM (inactive)
same,GI50,SF-295,22.9 µM (inactive)
same,GI50,SF-539,> 100 µM (inactive)
same,GI50,SK-MEL-28,> 100 µM (inactive)
same,GI50,SK-MEL-2,> 100 µM (inactive)
same,GI50,SK-MEL-5,> 100 µM (inactive)
same,GI50,SK-OV-3,> 100 µM (inactive)
same,GI50,SN12C,> 100 µM (inactive)
same,GI50,SNB-19,> 100 µM (inactive)
same,GI50,SNB-75,> 100 µM (inactive)
same,GI50,SNB-78,> 100 µM (inactive)
same,GI50,SR,> 100 µM (inactive)
same,GI50,SW-620,> 100 µM (inactive)
same,GI50,TK-10,> 100 µM (inactive)
same,GI50,U-251,> 100 µM (inactive)
same,GI50,UACC-257,> 100 µM (inactive)
same,GI50,UACC-62,> 100 µM (inactive)
same,GI50,UO-31,> 100 µM (inactive)
same,GI50,XF498,> 100 µM (inactive)
